Measured values reported in patent US10251852B2, “Composition and methods for treatment of lung disorders characterized by cholesterol dysregulation” (priority 2016, dated 2019).

Legend:
[1] = tested on: BMD macrophages from PAP mice (Csf2−/−); test: In vitro mouse PPARγ & LXR stimulation, gene expression by qRT-PCR; assay type: cell-based; details: T0901317 1 μm
Protocol: Tissue macrophage differentiation and culture. All cells were maintained in the culture medium of Dulbecco's modified eagle's medium (DMEM) (Life Technologies) plus 10% FBS, 50 U ml-1 penicillin, and 50 μg ml-1 streptomycin. Bone marrow cells were obtained from 6-8-week-old mice by flushing the tibias and femurs with the culture media described above.
Mononuclear cells were isolated by centrifugation over a Ficoll-Paque (GE Healthcare Life Sciences) gradient at room temperature for 30 minutes. The buffy coat was washed in PBS and the cellular pellet re-suspended in the culture medium with M-CSF (R&D Systems) (5 ng/ml) plus or minus GM-CSF (R&D Systems) as dictated per experimental requirements. Cells were cultured in a 10 cm dish overnight at 37° C. and the next day non-adherent cells were recovered and transferred to a new dish and cultured under the same conditions for an additional 24 hrs. At this stage non-adherent cells were discarded and adherent cells cultured for an additional five days to allow differentiation of bone marrow derived (BMD) macrophages. Peritoneal macrophages were isolated from the peritoneal without chemical solicitation by washing with 8 ml of PBS plus 0.5 mM EDTA. WT peritoneal macrophages were cultured in vitro in culture medium with M-CSF (5 ng/ml) and GM-CSF […], and Csf2^−/− peritoneal macrophages were cultured in culture medium with M-CSF alone. […]

[2] = tested on: BMD macrophages from PAP mice (Csf2−/−); test: In vitro surfactant challenge assay after PPARγ/LXR stimulation (esterified cholesterol accumulation); assay type: cell-based, mouse
Protocol: (§1) In vitro surfactant challenge assay. BMD macrophages or peritoneal macrophages were seeded at 4×10^5 cells per well of a 12 well tissue culture plate and allowed to adhere with fresh media and cytokines overnight. Cells were then challenged for 24 hrs with pulmonary surfactant isolated from a hereditary PAP patient (PAP-S). After the challenge cells were gently washed with PBS to remove exogenous PAP-S and cellular lipids were then extracted and analyzed by the amplex red cholesterol assay.
In vitro mouse PPARγ & LXR stimulation Studies. BMD macrophages were prepared as previously described in the presence of M-CSF (10 ng/ml). On the 7th day macrophages were stimulated for 24 hrs with M-CSF (10 ng/ml), GM-CSF (10 ng/ml), Pioglitazone (10 μm) or T0901317 (1 μm from Tocris). Macrophages were then used for an in vitro surfactant challenge assay or gene expression analysis by qRT-PCR as described above.

Csf2rb−/− mice [3] = test: In vivo LXR stimulation study (oral T0901317 in PAP mice); parameters: species or system mouse; details: oral gavage 10 mg/kg/day, 7 days
Protocol: Bronchoalveolar lavage and alveolar macrophage collection in mice.
RNA isolation and gene expression analysis.
In vivo LXR Stimulation Studies. Mice were administered T0901317 by oral gavage once daily for 7 days at a dose of 10 mg/kg/BW/Day using propylene glycol and tween 80 as a vehicle. On the 7th day alveolar macrophages were collected by bronchoalveolar lavage. Following brief adherence to tissue culture plastic to remove BAL debris, alveolar macrophages were then used for RNA isolation and gene expression analysis by qRT-PCR as described above

[4] = tested on: alveolar macrophages from PAP patients; test: Ex vivo human PPARγ & LXR stimulation, mRNA by qRT-PCR; assay type: cell-based
Protocol: Bronchoalveolar lavage and alveolar macrophage collection in human participants. This study was conducted with the approval of the Cincinnati Children's Hospital Medical Center institutional review board and all participants or their legal guardians gave written informed consent. Human BAL fluid and alveolar macrophages were obtained from BAL using flexible bronchoscopy or from discarded material of PAP patients undergoing therapeutic whole lung lavage. After the fluid was centrifuged at 283 g for 10 minutes, the cellular pellet was re-suspended in the culture medium. Human alveolar macrophages were isolated by adherence to tissue culture plastic. Extracellular debris was removed by gentle washing with PBS.
(§2) RNA isolation and gene expression analysis. Total RNA was isolated using Trizol (Life Technologies) and was converted to cDNA using the Invitrogen Superscript III first strand synthesis kit (Life Technologies) according to the manufacturer's protocol. Standard quantitative RT-PCR (qRT-PCR) was performed as previously described 10 on an Applied Biosystems 7300 Real-Time PCR System (Life Technologies) to measure transcript abundance using TaqMan® oligonucleotide primer sets (all from Life Technologies). Expression of target genes was normalized to the expression of 18s RNA.
Ex vivo human PPARγ & LXR stimulation studies. After purifying alveolar macrophages, fresh media was added to the adherent alveolar macrophages containing human M-CSF (R&D) (25ng/ml) only or M-CSF plus Pioglitazone (Sigma) (10 μM) or T0901317 (Tocris) (1 μM) for 24 hrs. qRT-PCR was performed as described above.

[5] = tested on: patients with insulin resistance; details: literature ref. 53; cited from earlier work
Csf2rb−/− mice [6] = test: In vivo PPARγ stimulation study (oral pioglitazone in PAP mice)
From the text: Bronchoalveolar lavage and alveolar macrophage collection in mice. GM-CSF (CSF2) knockout (Csf2^−/−) mice5 and Csf2rb gene-deficient (Csf2rb^−/−)14 were reported previously (referred to mouse PAP). C57B1/6 mice (referred to as wild type or WT mice) were purchased from Charles River. All mice were bred, housed, and studied in the Cincinnati Children's Research Foundation Vivarium using protocols approved by the Institutional Animal Care and Use Committee. Epithelial lining fluid and non-adherent cells were collected from indicated mice by bronchoalveolar lavage (BAL) using five lml aliquots of PBS plus 0.5 mM EDTA4. The 1 ml aliquots were pooled and the recovered volumes recorded. The supernatant was removed and the cellular pellets were re-suspended in the culture media for isolation of alveolar macrophages by adherence to tissue culture plastic.
Cholesterol levels. Total and free cholesterol levels were measured by the amplex red cholesterol assay (Life Technologies) per the manufacturer's protocol. Esterified cholesterol was then calculated by subtracting free cholesterol from the total value.
Turbidity. The turbidity of the fluid was measured as previously described^4,55 Briefly, 250 uls of the BAL were diluted into 750 uls of PBS and the optical density measured at a wavelength of 600 nm and multiplied by the dilution factor.
as §2
In vivo PPARγ stimulation studies. Pioglitazone was incorporated into standard rodent chow at a dose expected to deliver 20 mg/kg BW/Day. BAL turbidity and alveolar macrophage gene expressions were measured as described above. GM-CSF levels and total cholesterol levels in the BAL were measured in the supernatant of fluid after centrifuge at 283 g for 10 minutes at 4° C. by enzyme-linked immunosorbent assay (ELISA) (R&D systems) and Amplex Red Cholesterol assay respectively as described above.

Csf2−/− BMD macrophages = test: GM-CSF plasticity studies (withdrawal, multi-day stimulation, dose response) with PAP-S challenge; assay type: cell-based, mouse; details: for reduction in exposure-related cholesterol ester accumulation: addition of GM-CSF (10 ng/ml) to macrophages cultured without it; for increase in exposure-related cholesterol ester accumulation: withdrawal of GM-CSF
Protocol: as §1
GM-CSF withdrawal. Csf2^−/− BMD macrophages were differentiated and maintained in media containing M-CSF and GM-CSF. After 7 days of differentiation cells were split into 12well tissue culture plates and allowed to adhere overnight in GM-CSF containing media. The following day the media was changed to M-CSF only and cells were challenged with PAP-S for 24hrs immediately or 24, 48, and 72 hours after GM-CSF withdrawal. Cellular lipids were extracted, normalized to total protein, and analyzed. Csf2^−/− BMD macrophages were used to ensure elimination of any potential autologous GM-CSF expression-related stimulation.
Multi-Day GM-CSF stimulation. Csf2^−/− BMD macrophages were generated in media containing M-CSF. On the 7th day cells were stimulated for 0, 24, 48, or 72 hrs with 10 ng/ml of GM-CSF before 24 hr surfactant challenge with PAP-S. Cellular lipids were extracted, normalized to total protein, and analyzed.
GM-CSF dose response. Csf2^−/− BMD macrophages were generated in media containing M-CSF. On the 7th day cells were stimulated by a dose response of GM-CSF (0, 0.1,1,10, and 100 ng/ml) for 24 hrs before surfactant challenge with PAP-S. Cellular lipids were extracted, normalized to total protein, and analyzed.

[7] = oral in food, 20 mg/kg/day, six weeks, vs untreated age-matched controls (FIG. 5F-5G)
[8] = pioglitazone 10 μM, 24 hrs, compared to untreated controls (FIG. 5A-5B)

O=S(=O)(c1ccccc1)N(CC(F)(F)F)c1ccc(C(O)(C(F)(F)F)C(F)(F)F)cc1 [T0901317, N-(2,2,2-trifluoroethyl)-N-[4-[2,2,2-trifluoro-1-hydroxy-1-(trifluoromethyl)ethyl]phenyl]-benzenesulfonamide]
Abcg1 mRNA level ([1]; 24 hrs (FIG. 8C)): increased | Abca1 mRNA level ([1]; 24 hrs (FIG. 8D)): increased | cholesterol ester accumulation following exposure to PAP-surfactant ([2]; T0901317 1 μm 24 hrs, then PAP-S 24 hrs (FIG. 8E)): reduced | Abca1 mRNA in alveolar macrophages (Csf2rb−/− mice [3]; vs untreated age-matched controls (FIG. 8F)): significantly increased | Abcg1 mRNA in alveolar macrophages (Csf2rb−/− mice [3]; vs untreated age-matched controls (FIG. 8G)): significantly increased | ABCG1 mRNA ([4]; T0901317 1 μM, 24 hrs (FIG. 8A)): increase | ABCA1 mRNA ([4]; T0901317 1 μM, 24 hrs (FIG. 8B)): increase

CCc1ccc(CCOc2ccc(CC3SC(=O)NC3=O)cc2)nc1 (stereo not shown) [pioglitazone, Pioglitazone]
risk of stroke or myocardial infarction [5]: reduce the risk | Abca1 mRNA in alveolar macrophages (Csf2rb−/− mice [6]; [7]): significantly increased | Abcg1 mRNA in alveolar macrophages (Csf2rb−/− mice [6]; [7]): significantly increased | BAL turbidity (Csf2rb−/− mice [6]; oral in food, 20 mg/kg/day, six weeks, vs untreated age-matched controls (FIG. 5H)): significantly reduced | BAL cholesterol level (Csf2rb−/− mice [6]; oral in food, 20 mg/kg/day, six weeks, vs untreated age-matched controls (FIG. 5I)): significantly reduced | adverse effects (Csf2rb−/− mice [6]; oral pioglitazone in Csf2rb−/− mice (not shown)): no apparent adverse effects | severity of PAP lung disease (Csf2rb−/− mice [6]; pioglitazone therapy of GM-CSF deficient mice (summary statement)): reduced the severity | cholesterol ester accumulation following exposure to PAP-surfactant ([2]; pioglitazone 10 μm 24 hrs, then PAP-S 24 hrs (FIG. 5E)): reduced | ABCA1 mRNA [4, 8]: did not alter | ABCG1 mRNA [4, 8]: markedly increased

GM-CSF: granulocyte/macrophage-colony stimulating factor (R&D Systems)
cholesterol clearance capacity of macrophages (Csf2−/− BMD macrophages; GM-CSF 0, 0.1, 1, 10, 100 ng/ml for 24 hrs before PAP-S challenge (FIG. 3N)): increased the cholesterol clearance capacity of macrophages in dose-dependent fashion | reduction in exposure-related cholesterol ester accumulation (Csf2−/− BMD macrophages; by 24 hours (FIG. 3M)): 27% | reduction in exposure-related cholesterol ester accumulation (Csf2−/− BMD macrophages; by 72 hours (FIG. 3M)): 49% | increase in exposure-related cholesterol ester accumulation (Csf2−/− BMD macrophages; by 24 hours (FIG. 3L)): 86% | increase in exposure-related cholesterol ester accumulation (Csf2−/− BMD macrophages; by 72 hours (FIG. 3L)): 309%
